Measurements taken from ChEMBL document CHEMBL4507277.

Experiments:
[1] = target: Sigma non-opioid intracellular receptor 1 (Homo sapiens) (UniProt Q99720); conditions: Compound concentration 10.0 uM
[2] = target: Serine/threonine-protein kinase Nek6 (Homo sapiens) (UniProt Q9HC98); conditions: Compound concentration 1000.0 nM
[3] = tested on: ALK tyrosine kinase receptor (Homo sapiens), Q9UM73 [C1156Y]; conditions: Compound concentration 1000.0 nM
[4] = target: LIM domain kinase 2 (Homo sapiens) (UniProt P53671); conditions: Compound concentration 1000.0 nM
[5] = target: Ephrin type-A receptor 1 (Homo sapiens) (UniProt P21709); conditions: Compound concentration 1000.0 nM
[6] = target: Wee1-like protein kinase 2 (Homo sapiens) (UniProt P0C1S8); conditions: Compound concentration 1000.0 nM
[7] = target: Serine/threonine-protein kinase MRCK gamma (Homo sapiens) (UniProt Q6DT37); conditions: Compound concentration 1000.0 nM
[8] = target: Serine/threonine-protein kinase SBK1 (Homo sapiens) (UniProt Q52WX2); conditions: Compound concentration 1000.0 nM
[9] = target: Tyrosine-protein kinase SYK (Homo sapiens) (UniProt P43405); conditions: Compound concentration 1000.0 nM
[10] = target: Receptor-type tyrosine-protein kinase FLT3 (Homo sapiens) (UniProt P36888); conditions: Compound concentration 1000.0 nM
[11] = target: Rhodopsin kinase GRK7 (Homo sapiens) (UniProt Q8WTQ7); conditions: Compound concentration 1000.0 nM
[12] = target: 5-hydroxytryptamine receptor 1D (Homo sapiens) (UniProt P28221); conditions: Compound concentration 10.0 uM
[13] = target: Mitogen-activated protein kinase 13 (Homo sapiens) (UniProt O15264); conditions: Compound concentration 1000.0 nM
[14] = target: Histamine H2 receptor (Homo sapiens) (UniProt P25021); conditions: Compound concentration 10.0 uM
[15] = target: Serine/threonine-protein kinase Nek3 (Homo sapiens) (UniProt P51956); conditions: Compound concentration 1000.0 nM
[16] = target: Serine/threonine-protein kinase 10 (Homo sapiens) (UniProt O94804); conditions: Compound concentration 1000.0 nM
[17] = target: Casein kinase I isoform epsilon (Homo sapiens) (UniProt P49674); conditions: Compound concentration 1000.0 nM
[18] = target: Serine/threonine-protein kinase ULK1 (Homo sapiens) (UniProt O75385); conditions: Compound concentration 1000.0 nM
[19] = target: High affinity nerve growth factor receptor (Homo sapiens) (UniProt P04629); conditions: Compound concentration 1000.0 nM
[20] = tested on: Tyrosine-protein kinase ABL1 (Homo sapiens), P00519 [Y253F]; conditions: Compound concentration 1000.0 nM
[21] = target: Calcium/calmodulin-dependent protein kinase type 1 (Homo sapiens) (UniProt Q14012); conditions: Compound concentration 1000.0 nM
[22] = target: Mitogen-activated protein kinase 12 (Homo sapiens) (UniProt P53778); conditions: Compound concentration 1000.0 nM
[23] = target: Inhibitor of nuclear factor kappa-B kinase subunit epsilon (Homo sapiens) (UniProt Q14164); conditions: Compound concentration 1000.0 nM
[24] = target: Dual specificity mitogen-activated protein kinase kinase 1 (Homo sapiens) (UniProt Q02750); conditions: Compound concentration 1000.0 nM
[25] = target: Cyclin-dependent kinase 2 homolog (Plasmodium falciparum (isolate 3D7)) (UniProt P61075); conditions: Compound concentration 1000.0 nM
[26] = target: Serine/threonine-protein kinase PAK 3 (Homo sapiens) (UniProt O75914); conditions: Compound concentration 1000.0 nM
[27] = target: Serine/threonine-protein kinase BRSK2 (Homo sapiens) (UniProt Q8IWQ3); conditions: Compound concentration 1000.0 nM
[28] = target: Protein-tyrosine kinase 6 (Homo sapiens) (UniProt Q13882); conditions: Compound concentration 1000.0 nM
[29] = target: Tyrosine-protein kinase JAK2 (Homo sapiens) (UniProt O60674); conditions: Compound concentration 1000.0 nM
[30] = tested on: Mast/stem cell growth factor receptor Kit (Homo sapiens), P10721 [V559D,T670I]; conditions: Compound concentration 1000.0 nM
[31] = target: Ephrin type-B receptor 3 (Homo sapiens) (UniProt P54753); conditions: Compound concentration 1000.0 nM
[32] = tested on: Epidermal growth factor receptor (Homo sapiens), P00533 [G719S]; conditions: Compound concentration 1000.0 nM
[33] = target: Serine/threonine-protein kinase 16 (Homo sapiens) (UniProt O75716); conditions: Compound concentration 1000.0 nM
[34] = target: Tyrosine-protein kinase ABL2 (Homo sapiens) (UniProt P42684); conditions: Compound concentration 1000.0 nM
[35] = target: Serine/threonine-protein kinase 32B (Homo sapiens) (UniProt Q9NY57); conditions: Compound concentration 1000.0 nM
[36] = target: Serine/threonine-protein kinase WNK1 (Homo sapiens) (UniProt Q9H4A3); conditions: Compound concentration 1000.0 nM
[37] = target: 3-phosphoinositide-dependent protein kinase 1 (Homo sapiens) (UniProt O15530); conditions: Compound concentration 1000.0 nM
[38] = target: Dual specificity mitogen-activated protein kinase kinase 7 (Homo sapiens) (UniProt O14733); conditions: Compound concentration 1000.0 nM
[39] = target: Myosin light chain kinase, smooth muscle (Homo sapiens) (UniProt Q15746); conditions: Compound concentration 1000.0 nM
[40] = target: Serine/threonine-protein kinase RIO3 (Homo sapiens) (UniProt O14730); conditions: Compound concentration 1000.0 nM
[41] = target: Serine/threonine-protein kinase Nek2 (Homo sapiens) (UniProt P51955); conditions: Compound concentration 1000.0 nM
[42] = target: Serine/threonine-protein kinase Sgk3 (Homo sapiens) (UniProt Q96BR1); conditions: Compound concentration 1000.0 nM
[43] = target: Cyclin-dependent kinase 3 (Homo sapiens) (UniProt Q00526); conditions: Compound concentration 1000.0 nM
[44] = target: ALK tyrosine kinase receptor (Homo sapiens) (UniProt Q9UM73); conditions: Compound concentration 1000.0 nM
[45] = target: Dual specificity protein kinase CLK4 (Homo sapiens) (UniProt Q9HAZ1); conditions: Compound concentration 1000.0 nM

Chain of Receptor-type tyrosine-protein kinase FLT3 (Homo sapiens) (P36888 whole entry): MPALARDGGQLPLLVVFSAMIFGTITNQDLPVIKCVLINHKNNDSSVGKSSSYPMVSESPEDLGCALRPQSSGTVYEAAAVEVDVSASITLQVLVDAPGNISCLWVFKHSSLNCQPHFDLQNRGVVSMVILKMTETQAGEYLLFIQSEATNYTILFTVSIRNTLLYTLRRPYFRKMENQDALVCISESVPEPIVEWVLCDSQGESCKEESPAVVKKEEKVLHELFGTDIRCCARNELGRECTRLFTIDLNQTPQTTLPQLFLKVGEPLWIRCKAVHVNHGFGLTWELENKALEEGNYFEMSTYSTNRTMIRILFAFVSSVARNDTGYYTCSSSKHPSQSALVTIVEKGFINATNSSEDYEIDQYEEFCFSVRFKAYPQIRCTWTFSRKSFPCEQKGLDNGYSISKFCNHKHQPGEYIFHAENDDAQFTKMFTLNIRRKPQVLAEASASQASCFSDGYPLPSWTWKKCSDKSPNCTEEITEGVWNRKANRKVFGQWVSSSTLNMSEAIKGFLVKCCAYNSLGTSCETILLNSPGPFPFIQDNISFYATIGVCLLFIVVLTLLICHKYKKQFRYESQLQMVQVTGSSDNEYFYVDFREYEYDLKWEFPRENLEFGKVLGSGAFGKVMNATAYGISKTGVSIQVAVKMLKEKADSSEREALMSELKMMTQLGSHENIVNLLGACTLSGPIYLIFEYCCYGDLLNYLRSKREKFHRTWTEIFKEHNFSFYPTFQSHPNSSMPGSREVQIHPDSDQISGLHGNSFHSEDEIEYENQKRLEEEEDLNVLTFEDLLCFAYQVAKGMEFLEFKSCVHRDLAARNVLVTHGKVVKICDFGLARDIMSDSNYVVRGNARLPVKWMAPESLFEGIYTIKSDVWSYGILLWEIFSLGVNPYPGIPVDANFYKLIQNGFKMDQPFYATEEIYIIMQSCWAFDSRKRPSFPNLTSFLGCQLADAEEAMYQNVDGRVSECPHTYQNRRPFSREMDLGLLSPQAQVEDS
Chain of Histamine H2 receptor (Homo sapiens) (P25021 whole entry): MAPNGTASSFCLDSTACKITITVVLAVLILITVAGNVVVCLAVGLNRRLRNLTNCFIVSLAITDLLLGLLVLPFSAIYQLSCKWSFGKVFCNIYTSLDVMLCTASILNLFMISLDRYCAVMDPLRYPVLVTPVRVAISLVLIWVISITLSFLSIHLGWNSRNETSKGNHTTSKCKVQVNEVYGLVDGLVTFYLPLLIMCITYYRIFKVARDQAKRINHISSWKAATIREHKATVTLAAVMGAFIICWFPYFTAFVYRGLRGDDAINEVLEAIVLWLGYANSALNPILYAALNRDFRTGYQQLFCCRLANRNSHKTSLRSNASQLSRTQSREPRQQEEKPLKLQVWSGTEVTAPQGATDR
Chain of Serine/threonine-protein kinase WNK1 (Homo sapiens) (Q9H4A3 whole entry, looked up): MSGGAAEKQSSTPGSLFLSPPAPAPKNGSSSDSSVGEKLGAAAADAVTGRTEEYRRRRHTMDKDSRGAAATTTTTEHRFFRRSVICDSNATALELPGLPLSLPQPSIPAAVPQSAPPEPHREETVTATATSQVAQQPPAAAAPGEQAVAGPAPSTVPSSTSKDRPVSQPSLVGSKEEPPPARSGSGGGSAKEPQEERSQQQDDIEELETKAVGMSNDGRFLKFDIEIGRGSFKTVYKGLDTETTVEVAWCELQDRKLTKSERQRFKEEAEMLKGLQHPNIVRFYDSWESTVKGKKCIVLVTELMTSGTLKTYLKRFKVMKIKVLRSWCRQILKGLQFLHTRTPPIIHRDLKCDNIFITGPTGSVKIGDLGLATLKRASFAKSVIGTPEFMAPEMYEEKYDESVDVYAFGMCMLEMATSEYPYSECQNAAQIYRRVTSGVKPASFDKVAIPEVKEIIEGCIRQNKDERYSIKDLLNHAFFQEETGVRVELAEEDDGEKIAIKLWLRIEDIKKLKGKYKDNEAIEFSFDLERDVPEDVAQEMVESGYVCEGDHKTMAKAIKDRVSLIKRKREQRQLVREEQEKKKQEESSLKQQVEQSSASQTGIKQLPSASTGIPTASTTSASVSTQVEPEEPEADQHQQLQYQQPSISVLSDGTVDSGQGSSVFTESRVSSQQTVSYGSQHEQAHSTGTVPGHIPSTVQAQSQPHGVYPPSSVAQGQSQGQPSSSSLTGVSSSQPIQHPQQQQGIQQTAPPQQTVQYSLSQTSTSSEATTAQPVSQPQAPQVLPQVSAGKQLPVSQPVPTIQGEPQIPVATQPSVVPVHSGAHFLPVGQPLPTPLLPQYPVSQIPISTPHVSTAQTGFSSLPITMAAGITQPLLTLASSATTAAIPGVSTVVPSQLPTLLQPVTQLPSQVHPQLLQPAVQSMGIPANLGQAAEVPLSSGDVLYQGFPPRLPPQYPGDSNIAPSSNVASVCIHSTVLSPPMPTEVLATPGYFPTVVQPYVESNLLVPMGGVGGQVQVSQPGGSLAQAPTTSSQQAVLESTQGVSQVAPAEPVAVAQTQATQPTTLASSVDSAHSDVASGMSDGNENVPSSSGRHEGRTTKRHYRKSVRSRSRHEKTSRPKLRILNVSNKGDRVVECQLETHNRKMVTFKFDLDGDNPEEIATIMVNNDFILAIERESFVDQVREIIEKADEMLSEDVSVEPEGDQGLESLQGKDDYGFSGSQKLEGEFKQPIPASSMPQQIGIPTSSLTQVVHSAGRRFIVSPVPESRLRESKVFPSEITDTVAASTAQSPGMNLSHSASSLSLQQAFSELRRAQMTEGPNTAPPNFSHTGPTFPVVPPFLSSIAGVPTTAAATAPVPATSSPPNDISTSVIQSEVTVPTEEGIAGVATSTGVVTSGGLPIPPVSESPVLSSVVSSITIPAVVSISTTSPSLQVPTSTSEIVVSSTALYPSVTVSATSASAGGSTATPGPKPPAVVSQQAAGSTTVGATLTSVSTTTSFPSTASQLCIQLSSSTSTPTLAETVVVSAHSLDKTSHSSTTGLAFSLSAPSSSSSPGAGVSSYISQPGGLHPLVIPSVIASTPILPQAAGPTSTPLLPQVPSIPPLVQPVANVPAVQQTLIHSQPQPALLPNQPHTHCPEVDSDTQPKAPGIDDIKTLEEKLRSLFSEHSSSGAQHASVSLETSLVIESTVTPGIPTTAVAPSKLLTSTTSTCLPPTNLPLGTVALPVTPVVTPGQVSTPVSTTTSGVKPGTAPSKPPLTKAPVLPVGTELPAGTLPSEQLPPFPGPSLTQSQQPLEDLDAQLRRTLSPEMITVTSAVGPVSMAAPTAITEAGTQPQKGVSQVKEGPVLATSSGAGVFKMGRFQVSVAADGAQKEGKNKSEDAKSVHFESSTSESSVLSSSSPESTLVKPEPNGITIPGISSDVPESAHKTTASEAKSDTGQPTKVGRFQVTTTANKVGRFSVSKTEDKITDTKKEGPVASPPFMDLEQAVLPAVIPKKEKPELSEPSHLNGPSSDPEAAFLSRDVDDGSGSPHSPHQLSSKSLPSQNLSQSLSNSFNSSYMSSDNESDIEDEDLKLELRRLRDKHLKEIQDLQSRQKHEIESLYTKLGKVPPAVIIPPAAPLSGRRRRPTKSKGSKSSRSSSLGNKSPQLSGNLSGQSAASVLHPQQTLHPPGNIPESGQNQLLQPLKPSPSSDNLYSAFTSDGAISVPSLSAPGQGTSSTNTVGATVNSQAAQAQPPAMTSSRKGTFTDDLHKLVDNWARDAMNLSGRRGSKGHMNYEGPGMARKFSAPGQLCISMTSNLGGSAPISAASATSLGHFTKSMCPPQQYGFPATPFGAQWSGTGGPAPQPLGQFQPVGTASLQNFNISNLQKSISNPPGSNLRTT
Chain of High affinity nerve growth factor receptor (Homo sapiens) (P04629 33-796 limits assumed): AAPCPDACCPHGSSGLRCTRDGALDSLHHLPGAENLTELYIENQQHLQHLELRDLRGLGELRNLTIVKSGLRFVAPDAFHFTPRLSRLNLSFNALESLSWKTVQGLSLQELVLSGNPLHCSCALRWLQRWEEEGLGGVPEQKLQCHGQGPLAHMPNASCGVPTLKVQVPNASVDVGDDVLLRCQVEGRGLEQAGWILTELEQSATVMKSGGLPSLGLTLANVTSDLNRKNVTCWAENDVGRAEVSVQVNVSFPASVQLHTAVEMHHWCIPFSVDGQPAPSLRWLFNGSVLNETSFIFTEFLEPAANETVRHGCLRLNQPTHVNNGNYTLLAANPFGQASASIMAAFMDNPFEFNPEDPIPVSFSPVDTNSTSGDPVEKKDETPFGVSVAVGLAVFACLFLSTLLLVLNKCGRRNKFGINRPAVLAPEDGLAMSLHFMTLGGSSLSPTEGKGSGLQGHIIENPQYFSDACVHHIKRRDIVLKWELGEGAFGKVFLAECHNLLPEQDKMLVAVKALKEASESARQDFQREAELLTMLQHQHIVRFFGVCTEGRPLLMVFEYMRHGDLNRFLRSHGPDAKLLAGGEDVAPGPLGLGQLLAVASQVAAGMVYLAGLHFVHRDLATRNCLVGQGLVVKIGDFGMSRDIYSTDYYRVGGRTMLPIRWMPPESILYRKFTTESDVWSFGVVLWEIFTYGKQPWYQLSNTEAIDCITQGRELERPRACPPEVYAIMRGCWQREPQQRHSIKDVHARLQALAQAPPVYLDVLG
Chain of Cyclin-dependent kinase 2 homolog (Plasmodium falciparum (isolate 3D7)) (P61075 whole entry): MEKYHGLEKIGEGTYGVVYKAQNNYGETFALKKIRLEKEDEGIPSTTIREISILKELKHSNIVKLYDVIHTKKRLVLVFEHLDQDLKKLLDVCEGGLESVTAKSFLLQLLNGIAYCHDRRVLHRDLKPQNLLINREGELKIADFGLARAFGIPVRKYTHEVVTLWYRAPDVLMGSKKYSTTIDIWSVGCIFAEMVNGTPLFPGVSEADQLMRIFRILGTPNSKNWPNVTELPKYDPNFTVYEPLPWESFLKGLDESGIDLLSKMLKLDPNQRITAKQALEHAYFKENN
Chain of Sigma non-opioid intracellular receptor 1 (Homo sapiens) (Q99720 whole entry): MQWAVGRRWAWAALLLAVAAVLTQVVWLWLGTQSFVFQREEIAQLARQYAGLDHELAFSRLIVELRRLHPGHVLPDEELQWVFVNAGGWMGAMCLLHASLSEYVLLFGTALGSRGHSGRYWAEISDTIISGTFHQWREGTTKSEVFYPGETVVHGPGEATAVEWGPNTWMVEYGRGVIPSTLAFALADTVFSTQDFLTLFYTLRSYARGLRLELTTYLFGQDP

CCS(=O)(=O)c1cc2cc(C[C@](O)(CC(C)(C)c3ccc(F)cc3C(N)=O)C(F)(F)F)[nH]c2cn1
inactive: inhibition [1] 10.1% | residual activity [2] 100% | residual activity [3] 96% | residual activity [4] 100% | residual activity [5] 100% | residual activity [6] 100% | residual activity [7] 100% | residual activity [8] 87% | residual activity [9] 100% | residual activity [10] 85% | residual activity [11] 100% | inhibition [12] 5.54% | residual activity [13] 100% | inhibition [14] 12.3% | residual activity [15] 100% | residual activity [16] 100% | residual activity [17] 95% | residual activity [18] 100% | residual activity [19] 82% | residual activity [20] 93% | residual activity [21] 86% | residual activity [22] 100% | residual activity [23] 100% | residual activity [24] 91% | residual activity [25] 100% | residual activity [26] 100% | residual activity [27] 100% | residual activity [28] 100% | residual activity [29] 53% | residual activity [30] 100% | residual activity [31] 100% | residual activity [32] 100% | residual activity [33] 100% | residual activity [34] 80% | residual activity [35] 94% | residual activity [36] 97% | residual activity [37] 100% | residual activity [38] 99% | residual activity [39] 96% | residual activity [40] 91% | residual activity [41] 100% | residual activity [42] 89% | residual activity [43] 100% | residual activity [44] 100% | residual activity [45] 95%

CCS(=O)(=O)c1cc2cc(C[C@@](O)(CC(C)(C)c3ccc(F)cc3C(N)=O)C(F)(F)F)[nH]c2cn1
inactive: inhibition [1] 8.26% | residual activity [2] 100% | residual activity [3] 100% | residual activity [4] 100% | residual activity [5] 99% | residual activity [6] 95% | residual activity [7] 96% | residual activity [8] 94% | residual activity [9] 92% | residual activity [10] 100% | residual activity [11] 95% | inhibition [12] 7.98% | residual activity [13] 96% | inhibition [14] 6.84% | residual activity [15] 100% | residual activity [16] 100% | residual activity [17] 97% | residual activity [18] 100% | residual activity [19] 74% | residual activity [20] 72% | residual activity [21] 57% | residual activity [22] 100% | residual activity [23] 83% | residual activity [24] 68% | residual activity [25] 100% | residual activity [26] 100% | residual activity [27] 72% | residual activity [28] 97% | residual activity [29] 100% | residual activity [30] 100% | residual activity [31] 92% | residual activity [32] 100% | residual activity [33] 91% | residual activity [34] 88% | residual activity [35] 100% | residual activity [36] 90% | residual activity [37] 100% | residual activity [38] 99% | residual activity [39] 93% | residual activity [40] 74% | residual activity [41] 94% | residual activity [42] 79% | residual activity [43] 73% | residual activity [44] 100% | residual activity [45] 100%
